Source: patent publication US8530504B2, “Pyrazolothiazole compound” (Eisai R&D Management Co., Ltd., priority 2009, dated 2013)

Key:
[1] = test system: rats; details: cited from earlier work
[2] = test system: rats; details: cited from earlier work; remark: listed apart in the source
[3] = test system: rats; details: cited from earlier work; remark: listed apart in the source
[4] = pretreatment; cited from earlier work
[5] = in vivo; cited from earlier work
[6] = in vivo; cited from earlier work; remark: listed apart in the source
[7] = in vivo; cited from earlier work; remark: listed apart in the source
[8] = molecular target: human CRFR1 (Homo sapiens (Human), UniProt P34998); test: CRFR1 Binding Test; details: competition with 100 pM 125I-CRF, SPA method, membrane fraction of human CRFR1-expressing HEK293 cells; read-out: CRF1 receptor binding capacity IC50;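 further: nonspecific binding was determined with a 4,000-fold excess of unlabelled sauvagine and subtracted from every reading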
Sequence of human CRFR1 (P34998 24-415): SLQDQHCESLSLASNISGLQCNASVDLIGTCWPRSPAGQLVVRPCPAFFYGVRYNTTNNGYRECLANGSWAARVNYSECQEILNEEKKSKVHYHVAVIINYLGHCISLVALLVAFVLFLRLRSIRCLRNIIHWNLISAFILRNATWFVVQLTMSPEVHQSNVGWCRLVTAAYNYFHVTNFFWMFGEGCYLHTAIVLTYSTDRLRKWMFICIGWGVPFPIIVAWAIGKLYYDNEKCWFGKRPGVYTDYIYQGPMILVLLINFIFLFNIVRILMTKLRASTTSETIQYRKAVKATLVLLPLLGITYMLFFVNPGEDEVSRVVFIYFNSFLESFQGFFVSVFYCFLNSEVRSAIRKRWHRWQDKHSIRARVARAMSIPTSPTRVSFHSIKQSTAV

[9] = test system: mice; test: Light/dark box test in mice (anxiolytic effect); assay type: in vivo; details: for Effective Dose: dose significantly prolonging time spent in the light box vs vehicle, oral administration one hour prior to test, male Balb/c mice; for anxiolytic effect in the light/dark box test in mice: statistically significant at 30 mg/kg (oral administration)
Method: <Evaluation of Anxiolytic Effect in Light/Dark Box Test in Mice>
The light/dark box test in mice was carried out according to a modified method of Belzung C., Misslin R., and Vogel E. et al. (Reference; Behavioural effects of the benzodiazepine receptor partial agonist RO16-6028 in mice, Psychopharmacology, 97, 388-391, 1989). The test apparatus used in this test was a light/dark box including a covered black acrylic box (dark box; 15×10×20 cm), a white acrylic box with top opened (light box; 15×20×20 cm) and a black acrylic tunnel (10×7×4.5 cm) that connects the dark box and the light box and enables a mouse to freely move back and forth between the dark box and light box. In this test apparatus, however, a transparent acrylic plate was used for the front side (20×20 cm) and back side (20×20 cm) of the light box to allow observation of the behavior. After setting illumination so that the light intensity of the floor surface of the light box became 150 Lux, 5-week-old male Balb/c mice (purchased from Nihon Charles River) were introduced into the dark box and the test was started. In the test, the tested compound was suspended in 5% dimethyl sulfoxide, 5% Cremopor EL and 90% physiological saline and orally administered to the test animals one hour prior to the start of the test.
The time spent in the light box was measured as an index of the anxiolytic effect, with “spend in the light box” defined as the state in which all limbs of the mice were on the floor of the light box. […] The statistical significance between the vehicle-treated group and the test compound-treated groups was analyzed by one-way layout analysis of variance followed by Dunnett multiple comparison when multiple doses were set for the same test, and by the Mann-Whitney U test when only one dose was set.

[10] = Journal of Psychiatric Research, 34:171-181 (2000); cited from earlier work
[11] = test system: rats; details: cited from earlier work; remark: listed apart in the source
[12] = test system: high-anxiety rats; details: particularly in high-anxiety rats; cited from earlier work
[13] = test system: Tg2576 transgenic mice; details: cited from earlier work
[14] = convulsion and epilepsy induced by CRF administration; cited from earlier work
[15] = in vivo; cited from earlier work; remark: listed apart in the source
[16] = in vivo; cited from earlier work; remark: listed apart in the source
[17] = test system: IBS patients; details: cited from earlier work
[18] = test system: ethanol withdrawal rats; details: cited from earlier work
[19] = in vivo; cited from earlier work; remark: listed apart in the source
[20] = in vivo; cited from earlier work; remark: listed apart in the source

In the case of `CCCCN(CC)c1nc(C)nc2c1c(C)cn2-c1c(C)cc(C)cc1C` [CP-154526], the “anti-depressant and anti-anxiety actions” value [1] is given as “exhibits anti-depressant and anti-anxiety actions”, the “recurrence of stress-elicited alcohol-seeking behavior” value [2] is given as “inhibits recurrence of stress-elicited alcohol-seeking behavior” and the “recurrence of stress-elicited drug (heroin, cocaine)-seeking behavior” value [3] is given as “inhibits recurrence of stress-elicited drug (heroin, cocaine)-seeking behavior”. The “naltrexone-induced morphine withdrawal symptoms” value [4] was “inhibits naltrexone-induced morphine withdrawal symptoms”, the “gastric emptying retardation after surgery” value [5] was “recovers gastric emptying retardation after surgery” and the “learning disability following acute stress” value [6] was “inhibits learning disability following acute stress”.
For `CCN(c1nc(C)cc(N2CC=C(c3cccc(F)c3)CC2)n1)c1ccc(C(C)C)cc1SC` [CRA1000], the “stress-related reduction in food intake” value [7] is listed as “inhibit stress-related reduction in food intake”.
With `CCCN(c1c(OC)nn2c(-c3c(OC)cc(COC)cc3OC)csc12)C1CCOC1` (stereo not shown) [Example 14, 3-[2,6-Dimethoxy-4-methoxymethylphenyl]-6-methoxy-N-propyl-N-(tetrahydrofuran-3-yl)pyrazolo[5,1-b][1,3]thiazole-7-amine] the IC50 [8] was 51 nM, the “Effective Dose” value [9] was 30 mg/kg and the “anxiolytic effect in the light/dark box test in mice” value [9] was “excellent anxiolytic effects”.
In the case of `CCOCc1cc(OC)c(-c2csc3c(N(CCCOC)CC4CC4)c(OC)nn23)c(OC)c1` [Example 42, N-(Cyclopropylmethyl)-3-[4-(ethoxymethyl)-2,6-dimethoxyphenyl]-6-methoxy-N-(3-methoxypropyl)pyrazolo[5,1-b][1,3]thiazole-7-amine], the IC50 [8] is reported as 35 nM, the “Effective Dose” value [9] is reported as 30 mg/kg and the “anxiolytic effect in the light/dark box test in mice” value [9] is reported as “excellent anxiolytic effects”.
With `CCCN(c1c(OC)nn2c(-c3c(OC)cc(COCC)cc3OC)csc12)C1CCOC1` (stereo not shown) [Example 46, 3-[4-(Ethoxymethyl)-2,6-dimethoxyphenyl]-6-methoxy-N-propyl-N-(tetrahydrofuran-3-yl)pyrazolo[5,1-b][1,3]thiazole-7-amine] the IC50 [8] was 26 nM, the “Effective Dose” value [9] was 30 mg/kg and the “anxiolytic effect in the light/dark box test in mice” value [9] was “excellent anxiolytic effects”.
For `CCCN(CCC)c1cc(C)nc2c(-c3cnc(N(C)C)cc3C)c(C)nn12` [Example R121919], the “ameliorating depression, depressive symptoms, anxiety” value [10] is listed as “effective for ameliorating depression, depressive symptoms, anxiety”, the anti-anxiety action [11] is listed as “exhibits an anti-anxiety action” and the stress-related sleep disorder [12] is listed as “inhibits stress-related sleep disorder”.
For `CCCN(CC1CC1)c1nc(C)nc(Nc2c(Cl)cc(Cl)cc2Cl)c1Cl` [NBI27914], the “increased levels of Aβ and Aβ plaque deposition induced by stress” value [13] is given as “inhibits increased levels of Aβ and Aβ plaque deposition induced by stress” and the limbic system seizure [14] is given as “inhibits limbic system seizure”.
For `CCCCN(CC)c1nc(C)nc2c1c(C)c(C)n2-c1c(C)cc(C)cc1C` [antalarmin], the “stress-induced hippocampal tau phosphorylation” value [15] is given as “inhibits stress-induced hippocampal tau phosphorylation” and the “hypertension induced by intraventricular administration of CRF” value [16] is given as “inhibits hypertension induced by intraventricular administration of CRF”.
For α-helical CRF (9-41), the “colon intestinal hyperkinesis, abdominal pain and anxiety” value [17] is listed as “inhibits colon intestinal hyperkinesis in IBS patients and reduces abdominal pain and anxiety”, the anxiety behavior [18] is listed as “inhibits anxiety behavior” and the “stress-related reduction in food intake” value [7] is listed as “inhibit stress-related reduction in food intake”. For the same compound, the “stress-related increase in intracerebral amyloid-β” value [19] was “suppresses stress-related increase in intracerebral amyloid-β” and the “ischemic and excitotoxic encephalopathy” value [20] was “inhibits ischemic and excitotoxic encephalopathy”.
